The values below are quoted from earlier work in patent US8911790B2, “Solid composition containing a hypothiocyanite salt” (Alaxia SAS, priority 2011, dated 2014).

For the series the following is noted: hypothiocyanite ion, instability of the species.

Turning to `N#CSO` [hypothiocyanite ion, hypothiocyanite], the half-life entry was “less than 24 hours”.
